Reference: patent US20110166149A1, “PTERIDINE DERIVATIVES FOR TREATING RESPIRATORY DISEASE” (TARGEGEN INC., priority 2008, published 2011)
Read-outs that look alike come from different tables or passages of the source.

Legend:
[1] = Estimated lung exposure level calculated from respirable dose (Example 1); conditions: 30 minute exposure assumed, mouse
Experimental: Estimated lung exposure levels were calculated based on the following assumptions: respirable dose collected from 7 stage impactor; 30 minute exposure time; mouse minute volume of 23 mL/min; mouse weight of 25 g; mouse lung weight of 250 mg (1% of body weight).

[2] = Inhalation exposure: Compound A concentration in lung, plasma and BALF (Example 2); format: in vivo, BALB/c mice; conditions: for AUC(0-inf) / Cmax / Tmax / AUC(0-t) / concentration at 0.083 h / concentration at 0.25 h / concentration at 0.5 h / concentration at 1 h / concentration at 2 h / concentration at 4 h / concentration at 8 h / concentration at 12 h / concentration at 24 h: male, BALB/c; for AUC(0-inf) / Cmax / Tmax / AUC(0-t): inhaled or intranasal; for AUC(0-t): read-out: AUC(0-24); for concentration at 0.083 h / concentration at 0.25 h / concentration at 0.5 h / concentration at 1 h / concentration at 2 h / concentration at 4 h / concentration at 8 h / concentration at 12 h / concentration at 24 h: mouse, inhaled, mice, 30 min inhalation
Experimental: A series of compositions for pulmonary delivery were prepared by making a 20% suspension of compound A in a 5% tyloxapol solution in water. Particle size reduction was achieved using a colloid mill (magicLAB®, MK module, for 6 hours @ 12,000 rpm, while maintaining a temperature below 50° C.). Samples at 4% w/v compound A were prepared by dilution with DI water.
Low (0.02 mg/L), mid (0.07 mg/L), and high (0.20 mg/L) target aerosol concentrations 0.3% Compound A/0.075% tyloxapol, 0.6% Compound A/0.15% tyloxapol, and 1.5% Compound A/0.375% tyloxapol suspensions were used. These low, mid, and high target formulations were prepared as follows: […]
4% compound A and 1% tyloxapol were removed from refrigeration and approximately 2.25, 4.5, and 12 mL were transferred into clean 50 mL graduated plastic tubes, labeled 0.3% A/0.075% tyloxapol, 0.6% A/0.15% tyloxapol, and 1.5% A/0.375% tyloxapol suspensions and allowed to warm to room temperature. Each was diluted to 20 mL with ultra pure water and vortexed until completely mixed. Each formulation was made the morning of exposure to alleviate any storing/stability issues.
Eighty-seven (87) male BALB/c mice (8 weeks of age on arrival and 18.6-24.6 g on exposure day) were purchased from Charles River Laboratories (Raleigh, N.C.). The three animals with the lowest body weights and the three with the highest body weights were excluded from the study on the day of randomization. The remaining eighty-one (81) animals were assigned to the study. Temperatures and relative humidity (RH) in animal housing areas were within the target range specified in the protocol.
Animals were exposed to one of three concentrations of Compound A aerosols for a target of 30 min.
The actual concentrations of test article in the exposure atmospheres were determined by chemical analysis of timed filter samples collected directly from a nose-only exposure port during exposure. In addition, one impactor sample was obtained to verify particle size distribution (PSD), which is characterized by mass median aerodynamic diameter (MMAD) and geometric standard deviation (GSD). The filters and impactor stages were analyzed chemically by LRRI and are described below.

[3] = 0.15 mg/kg, mouse BALF, aerosol conc. 0.02 mg/L
[4] = 0.27 mg/kg, mouse BALF, aerosol conc. 0.07 mg/L
[5] = 0.7 mg/kg, mouse BALF, aerosol conc. 0.2 mg/L
[6] = mouse lung, aerosol conc. 0.02 mg/L
[7] = mouse lung, aerosol conc. 0.07 mg/L
[8] = mouse lung, aerosol conc. 0.2 mg/L
[9] = BALF, nominal aerosol 0.02 mg/L, read-out: Compound A concentration BALF
[10] = BALF, nominal aerosol 0.07 mg/L, read-out: Compound A concentration BALF
[11] = BALF, nominal aerosol 0.2 mg/L, read-out: Compound A concentration BALF
[12] = lung, nominal aerosol 0.02 mg/L, read-out: Compound A concentration Lung

Estimated lung conc. ([1]; 0.004% Compound A suspension): 0.1 µg/g
Estimated lung conc. ([1]; 0.04% Compound A suspension): 1.4 µg/g
Estimated lung conc. ([1]; 0.4% Compound A suspension): 11 µg/g
Estimated lung conc. ([1]; 4% Compound A suspension): 75 µg/g
time course of concentration in lung and BALF ([2]; FIGS. 1 and 2, higher concentrations for mice exposed to higher doses): dose dependent
Maximum concentration in the BALF ([2]; Group A (0.02 mg/L)): 1190 ng/mL
Maximum concentration in the lung ([2]; Group A (0.02 mg/L)): 20.9 µg/g
time of maximum concentration in the BALF ([2]; Group A (0.02 mg/L)): 0.25 h
time of maximum concentration in the lung ([2]; Group A (0.02 mg/L)): 0.08 h
Maximum concentration in the BALF ([2]; Group B (0.07 mg/L)): 2140 ng/mL
time of maximum concentration in the BALF ([2]; Group B (0.07 mg/L)): 0.08 h
time of maximum concentration in the lung ([2]; Group B (0.07 mg/L)): 2.00 h
Maximum concentration in the BALF ([2]; Group C (0.2 mg/L)): 5670 ng/mL
time of maximum concentration in the BALF ([2]; Group C (0.2 mg/L)): 0.25 h
time of maximum concentration in the lung ([2]; Group C (0.2 mg/L)): 0.50 h
plasma levels ([2]; all aerosol concentrations, generally): < LLOQ
AUC(0-inf) [2, 3]: 21700 ng·h/mL
Cmax [2, 3]: 1190 ng/mL
Tmax [2, 3]: 15 min
AUC(0-t) [2, 3]: 8850 ng·h/mL
AUC(0-inf) [2, 4]: 30400 ng·h/mL
Cmax [2, 4]: 2140 ng/mL
Tmax [2, 4]: 4.8 min
AUC(0-t) [2, 4]: 18100 ng·h/mL
AUC(0-inf) [2, 5]: 54300 ng·h/mL
Cmax [2, 5]: 5670 ng/mL
Tmax [2, 5]: 15 min
AUC(0-t) [2, 5]: 37200 ng·h/mL
Cmax [2, 6]: 20900 ng/g
Tmax [2, 6]: 4.8 min
Cmax [2, 7]: 22700 ng/g
Tmax [2, 7]: 120 min
Cmax [2, 8]: 67200 ng/g
Tmax [2, 8]: 30 min
concentration at 0.083 h [2, 9]: 896 ± 41.7 ng/mL
concentration at 0.25 h [2, 9]: 1190 ± 35.4 ng/mL
concentration at 0.5 h [2, 9]: 457 ± 219 ng/mL
concentration at 1 h [2, 9]: 831 ± 288 ng/mL
concentration at 2 h [2, 9]: 813 ± 117 ng/mL
concentration at 4 h [2, 9]: 541 ± 409 ng/mL
concentration at 8 h [2, 9]: 286 ± 156 ng/mL
concentration at 12 h [2, 9]: 296 ± 19.1 ng/mL
concentration at 24 h [2, 9]: 223 ± 91.2 ng/mL
concentration at 0.083 h [2, 10]: 2140 ± 1340 ng/mL
concentration at 0.25 h [2, 10]: 1190 ± 270 ng/mL
concentration at 0.5 h [2, 10]: 1350 ± 559 ng/mL
concentration at 1 h [2, 10]: 1250 ± 359 ng/mL
concentration at 2 h [2, 10]: 930 ± 818 ng/mL
concentration at 4 h [2, 10]: 1310 ± 1010 ng/mL
concentration at 8 h [2, 10]: 800 ± 225 ng/mL
concentration at 12 h [2, 10]: 569 ± 142 ng/mL
concentration at 24 h [2, 10]: 512 ± 128 ng/mL
concentration at 0.083 h [2, 11]: 3150 ± 110 ng/mL
concentration at 0.25 h [2, 11]: 5670 ± 2550 ng/mL
concentration at 0.5 h [2, 11]: 2220 ± 1910 ng/mL
concentration at 1 h [2, 11]: 2570 ± 2030 ng/mL
concentration at 2 h [2, 11]: 3190 ± 2580 ng/mL
concentration at 4 h [2, 11]: 3350 ± 687 ng/mL
concentration at 8 h [2, 11]: 1370 ± 185 ng/mL
concentration at 12 h [2, 11]: 1050 ± 799 ng/mL
concentration at 24 h [2, 11]: 694 ± 56 ng/mL
concentration at 0.083 h [2, 12]: 20900 ± 13200 ng/g
concentration at 0.25 h [2, 12]: 10100 ± 1390 ng/g
Compound: Nc1nc(N)c2nc(-c3cccc(O)c3)c(-c3cccc(O)c3)nc2n1 [Compound A, 6,7-bis(3-hydroxyphenyl)-pteridine-2,4-diamine]
